From article PMC8469169, “Design, Synthesis, and Cytotoxicity Assessment of [^64Cu]Cu-NOTA-Terpyridine Platinum Conjugate: A Novel Chemoradiotherapeutic Agent with Flexible Linker” (Nanomaterials, 2021)
Where “and” joins values, the source holds several entries; their conditions need not be identical. Identical values can stand only once. Like-named read-outs stand apart in the source and are kept apart here.

Tests used:
[1] = tested on: HCT116 cells; experiment: PrestoBlue (resazurin) cytotoxicity assay in HCT116 cells; type: cell-based, human
Experimental: Human CRC cells HCT116 obtained from ATCC were cultured in Eagle’s minimal essential medium (EMEM), while Dulbecco’s modified Eagle medium (DMEM) was used for the normal fibroblast cell line GM05757 purchased from Coriell Institute. […] Cells were incubated at 37 °C in a humidified environment with 5% CO2.
Cytotoxic activity was measured with the PrestoBlue method, which consists of a Resazurin-based metabolic assay. […] The final concentration of DMSO was less than 1%. Then, the media were removed, and the cells were washed with warm PBS and exposed with PrestoBlue reagent for an incubation time of 20 min. Changes in cell viability were recorded by fluorescence (λex = 570 nm; λem = 610 nm). […] The fluorescence values measured for blank groups were subtracted from those obtained from the treated and untreated cells.

[2] = tested on: GM05757 cells; experiment: PrestoBlue (resazurin) cytotoxicity assay in GM05757 normal fibroblasts
Experimental: Human CRC cells HCT116 obtained from ATCC were cultured in Eagle’s minimal essential medium (EMEM), while Dulbecco’s modified Eagle medium (DMEM) was used for the normal fibroblast cell line GM05757 purchased from Coriell Institute. These culture media were supplemented with 10% FBS, 26.2 mM sodium bicarbonate, 2 mM L-glutamine, and a mix of penicillin (100 UI/mL) and streptomycin (100 μg/mL). Cells were incubated at 37 °C in a humidified environment with 5% CO2.
Cytotoxic activity was measured with the PrestoBlue method, which consists of a Resazurin-based metabolic assay. Briefly, HCT116 cells (2 × 10^4 cells per well) and GM05757 cells (5 × 10^3 cells per well) were seeded in a 96-well plate and incubated for 24 h. Then, the cells were treated with the Pt drugs at concentrations ranging from 0 to 500 µM for a subsequent 24, 48, and 72 h. […] The final concentration of DMSO was less than 1%. Then, the media were removed, and the cells were washed with warm PBS and exposed with PrestoBlue reagent for an incubation time of 20 min. Changes in cell viability were recorded by fluorescence (λex = 570 nm; λem = 610 nm). […] The fluorescence values measured for blank groups were subtracted from those obtained from the treated and untreated cells.

[3] = tested on: HCT116 cells; conditions: cited from earlier work
[4] = Plasma stability by radio-TLC; type: in vitro ADME, mouse; conditions: room temperature; radio-iTLC; free 64Cu or fragments
Experimental: Plasma stability of the compound was assessed by incubating [^64Cu]Cu-NOTA-C3-TP in mouse plasma for 72 h at room temperature. Radio-TLC on C18 plates conducted on 0.1 M sodium citrate buffer at pH 5.5, as a developing solvent, was used to detect free ^64Cu. [^64Cu]Cu-NOTA-C3-TP and free [^64Cu]Cu(OAc)2 were employed as control standards.

[5] = tested on: HCT116 cells; experiment: Cellular uptake and internalization in HCT116 cells (gamma counting); type: cell-based, human
Experimental: (§1) HCT116 cells (2 × 10^5 per well) were seeded in 12-well plates for 48 h in EMEM medium completed with 10% FBS at 37 °C until 80% confluence. Cells were washed twice with PBS, and then [^64Cu]Cu-NOTA-C3-TP (0.1 MBq, 50 µL) in EMEM completed medium was added and incubated from 15 min to 72 h to measure cellular uptake and internalization. At each time point, the radioactive media was removed, and cells were washed thrice with cold PBS. To measure the net cellular uptake or internalized fraction, surface-bound Pt drugs were removed by treating with 50 mM glycine in PBS pH 2.2 for 10 min, which was followed by a second cold PBS wash. Then, cells were harvested through trypsinization and counted with a hemocytometer. The radioactivity was measured in a gamma counter (HIDEX Automatic Gamma Counter 2014). The results were expressed as a percentage of added dose (AD) retained per 10^6 cells (%AD/10^6 cells). Parallel experiments were carried out at 4 °C to assess internalization inhibition and surface-bound fraction. For efflux studies, HCT116 cells were incubated for 1 h with 0.1 MBq of [^64Cu]Cu-NOTA-C3-TP. Then, the cells were washed with PBS and fresh culture medium was added. After 0 to 72 h, the medium was removed, and the cells were washed thrice with PBS. Finally, the cells were harvested, and radioactivity was counted with the gamma counter. The results were expressed as percentage of total activity retained by 10^6 cells relative to baseline at 0 min.

[6] = tested on: HCT116 cells; experiment: Efflux assay in HCT116 cells; type: cell-based, human
Experimental: as §1, with “For efflux studies, HCT116 cells were incubated for 1 h with 0.1 MBq of [^64Cu]Cu-NOTA-C3-TP. Then, the cells were washed with PBS and fresh culture medium was added. After 0 to 72 h, the medium was removed, and the cells were washed thrice with PBS.” left out
For efflux studies, we followed the standard protocol of Fournier et al.. […] The activity retained by the cells was measured from 0 to 72 h post administration.

[7] = tested on: HCT116 cells; experiment: Subcellular (nucleus/cytoplasm) localization in HCT116 cells; type: cell-based, human; conditions: for Nucleus accumulation HCT116 versus GM05757 (fold reduction in GM05757) / Cytoplasmic distribution / Nucleus localization: high AMA; for Cytoplasmic distribution / Nucleus localization: HCT116
Experimental: For extraction of HCT116 and GM05757 cell nucleus and cytoplasm, we followed a previously reported procedure [28, 31]. After treatment of HCT116 cells with 1MBq of [^64Cu]Cu-NOTA-C3-TP for 24, 48 and 72 h, CSK buffer (0.5% Triton X-100, 300 mM sucrose, 100 mM NaCl, 1 mM ethylenediaminetetraacetic acid (EDTA), 2 mM MgCl2, and 10 mM HEPES, pH 6.8) were employed for nuclear extraction. After 5 min centrifugation, supernatant was separated, and the retained activity in nuclear plates was counted by a gamma counter (HIDEX Automatic Gamma Counter 2014).

[8] = tested on: GM05757 cells; conditions: high AMA
Experimental: For extraction of HCT116 and GM05757 cell nucleus and cytoplasm, we followed a previously reported procedure. After treatment of HCT116 cells with 1MBq of [^64Cu]Cu-NOTA-C3-TP for 24, 48 and 72 h, CSK buffer (0.5% Triton X-100, 300 mM sucrose, 100 mM NaCl, 1 mM ethylenediaminetetraacetic acid (EDTA), 2 mM MgCl2, and 10 mM HEPES, pH 6.8) were employed for nuclear extraction. After 5 min centrifugation, supernatant was separated, and the retained activity in nuclear plates was counted by a gamma counter (HIDEX Automatic Gamma Counter 2014).

[9] = Pt release at physiological pH by mass spectroscopy; type: physicochemical; conditions: physiological pH 7.2, after 72 h
[10] = 24 h incubation, read-out: EC50 HCT116 24 h
[11] = 48 h incubation, read-out: EC50 HCT116 48 h
[12] = 72 h incubation, read-out: EC50 HCT116 72 h
[13] = read-out: EC50 GM05757 24 h, 24 h incubation
[14] = read-out: EC50 GM05757 48 h, 48 h incubation
[15] = read-out: EC50 GM05757 72 h, 72 h incubation
[16] = HCT116, 24 h, low AMA 0.8 to 4.0 MBq/nmol
[17] = HCT116, 37 °C, 24 h, % of total activity/10^6 cells

SMILES: N.N.[Cl][Pt][Cl] [Cisplatin, reference compound]
- EC50 [1, 10]: 31 ± 2 µM
- EC50 [1, 11]: 42 ± 8 µM
- EC50 [1, 12]: 23 ± 3 µM
- EC50 [2, 13]: 88 ± 4 µM
- EC50 [2, 14]: 84 ± 2 µM
- EC50 [2, 15]: 77 ± 1 µM
- Cellular accumulation [3]: 5 ng Pt/10^6 HCT116 cells

SMILES: F[P-](F)(F)(F)(F)F.O=C(O)CN1CCN(CCCOc2cc3[n+]4c(c2)-c2cccc[n+]2[Pt-2]4([Cl])[n+]2ccccc2-3)CCN(CC(=O)O)CC1 [NOTA-C3-TP]
- EC50 [1, 10]: > 700 µM
- EC50 [1, 11]: 63 ± 2 µM
- EC50 [1, 12]: 24 ± 1 µM
- EC50 [2, 13]: 504 ± 4 µM
- EC50 [2, 14]: 202 ± 5 µM
- EC50 [2, 15]: 51 ± 3 µM

SMILES: O=C([O-])CN1CCN(CCCOc2cc3[n+]4c(c2)-c2cccc[n+]2[Pt-2]4([Cl])[n+]2ccccc2-3)CCN(CC(=O)[O-])CC1.[64Cu+2] [[^64Cu]Cu-NOTA-C3-TP]
- Viability of HCT116 cells ([1]; 5 MBq, low AMA, 24 h incubation): 22%
- Viability of HCT116 cells ([1]; 8 MBq, low AMA, 24 h incubation): 17%
- EC50 ([1]; 24 h, high AMA ≈120 MBq/nmol, read-out: EC50 HCT116 24 h): 0.017 ± 0.004 µM
- EC50 ([1]; 24 h, low AMA 0.8 to 4.0 MBq/nmol, read-out: EC50 HCT116 24 h): 59 ± 3 µM
- EC50 ([1]; 48 h, high AMA ≈120 MBq/nmol, read-out: EC50 HCT116 48 h): 0.012 ± 0.006 µM
- EC50 ([1]; 48 h, low AMA 0.8 to 4.0 MBq/nmol, read-out: EC50 HCT116 48 h): 9 ± 2 µM
- EC50 ([1]; 72 h, high AMA ≈120 MBq/nmol, read-out: EC50 HCT116 72 h): 0.006 ± 0.002 µM
- EC50 ([1]; 72 h, low AMA 0.8 to 4.0 MBq/nmol, read-out: EC50 HCT116 72 h): < 5 µM
- Fold more activity relative to [NatCu]Cu-NOTA-C3-TP and NOTA-C3-TP ([1]; HCT116, 48 and 72 h, low AMA): 5–66 fold
- Improvement of cytotoxicity with respect to [NatCu]Cu-NOTA-C3-TP ([1]; HCT116, 24 h, high AMA ≈120 MBq/nmol): ~17,000 fold
- Times more active than NOTA-C3-TP [1, 16]: 12 times
- Times more active than [NatCu]Cu-NOTA-C3-TP [1, 16]: 5 times
- Times more active than oxaliplatin [1, 16]: 3.4 times
- Improvement of cytotoxicity with respect to [NatCu]Cu-NOTA-C3-TP ([1]; HCT116, 72 h, high AMA ≈120 MBq/nmol): > 55,000 fold and 55,000 fold
- Selectivity toward cancer cells ([1]; HCT116 vs GM05757, 24 h): 3.9
- Times higher efficiency toward HCT116 relative to GM05757 ([1]; high AMA, 24 to 72 h): 2–4 times
- Cytotoxic activity on GM05757 lower than on HCT116 (fold) ([2]; low AMA, 24 h): at least 3.4 fold
- EC50 ([2]; read-out: EC50 GM05757 24 h, 24 h, high AMA ≈120 MBq/nmol): > 0.066 µM
- EC50 ([2]; read-out: EC50 GM05757 24 h, 24 h, low AMA 0.8 to 4.0 MBq/nmol): > 200 µM
- EC50 ([2]; read-out: EC50 GM05757 48 h, 48 h, high AMA ≈120 MBq/nmol): 0.025 ± 0.005 µM
- EC50 ([2]; read-out: EC50 GM05757 72 h, 72 h, high AMA ≈120 MBq/nmol): 0.019 ± 0.004 µM
- EC50 ([2]; read-out: EC50 GM05757 72 h, 72 h, low AMA 0.8 to 4.0 MBq/nmol): 12 ± 2 µM
- Stability in mouse plasma [4]: stable up to 72 h
- Internalization in HCT116 fold higher than in GM05757 ([5]; 24 h, 37 °C): 3.1 fold
- Internalization in HCT116 fold higher than in GM05757 ([5]; 48 h, 37 °C): 1.8 fold
- Internalization in HCT116 fold higher than in GM05757 ([5]; 72 h, 37 °C): 2.1 fold
- Uptake at 4 °C (passive accumulation), share of conjugate incubated ([5]; HCT116, 4 °C): less than 1%
- Cell-associated fraction higher than internalized fraction ([5]; HCT116, 37 °C): 2 fold
- Incubation time of maximum accumulation ([5]; HCT116, 37 °C): 24 h
- Internalized fraction ([5]; HCT116, 37 °C, 15 min incubation, % of total activity/10^6 cells): 0.04 ± 0.02%
- Cell-associated fraction (maximum) [5, 17]: 40.0 ± 2.8%
- Internalized fraction (maximum) [5, 17]: 18.7 ± 2.8%
- Cellular accumulation times larger than cisplatin ([5]; HCT116, 24 h): 14.4 times
- Cellular accumulation (maximum) ([5]; HCT116, 24 h incubation, low AMA): 72 ng of Pt/10^6 HCT116 cells
- Uptake at 4 °C lower than at 37 °C ([5]; HCT116, passive accumulation): ~ 30 fold
- Conjugate retained by cells ([6]; 72 h post administration): more than 40%
- Conjugate eliminated (efflux) ([6]; first 6 h after 1 h incubation): About 42%
- Increase in HCT116 nucleus uptake relative to [64Cu]Cu(OAc)2 ([7]; 24 h): 2.8 fold
- Nucleus accumulation HCT116 versus GM05757 (fold reduction in GM05757) ([7]; 24 h): 5.7 fold
- Increase in HCT116 nucleus uptake relative to [64Cu]Cu(OAc)2 ([7]; 48 h): 4.9 fold
- Nucleus accumulation HCT116 versus GM05757 (fold reduction in GM05757) ([7]; 48 h): 4.4 fold
- Increase in HCT116 nucleus uptake relative to [64Cu]Cu(OAc)2 ([7]; 72 h): 3.7 fold
- Nucleus accumulation HCT116 versus GM05757 (fold reduction in GM05757) ([7]; 72 h): 4.1 fold
- Cytoplasmic distribution ([7]; 24 h): 76 ± 7.3%
- Nucleus localization ([7]; 24 h): 8.6 ± 3% and 8.6%
- Cytoplasmic distribution ([7]; 48 h): 61 ± 11%
- Nucleus localization ([7]; 48 h): 13.4 ± 4%
- Cytoplasmic distribution ([7]; 72 h): 61 ± 8.3%
- Nucleus localization ([7]; 72 h): 12.3 ± 1%
- Cytoplasmic distribution ([8]; 24 h): 46 ± 6%
- Nucleus localization ([8]; 24 h): 1.5 ± 0.2%
- Cytoplasmic distribution ([8]; 48 h): 53 ± 6.5%
- Nucleus localization ([8]; 48 h): 3 ± 0.4%
- Cytoplasmic distribution ([8]; 72 h): 58.5 ± 8.3%
- Nucleus localization ([8]; 72 h): 3 ± 0.1%
- Pt released [9]: not seen

SMILES: O=C1[O][Pt]2([NH][C@@H]3CCCC[C@H]3[NH]2)[O]C1=O [Oxaliplatin, reference compound]
- EC50 [1, 10]: > 200 µM
- EC50 [1, 11]: 64 ± 1 µM
- EC50 [1, 12]: 16 ± 4 µM
- EC50 [2, 13]: > 200 µM
- EC50 [2, 14]: 165 ± 9 µM
- EC50 [2, 15]: 65 ± 3 µM
